Source: patent publication US6448405B1, “Steroid receptor modulator compounds and methods” (Ligand Pharmaceuticals Incorporated, priority 1994, dated 2002)
Where two headings read alike, the source gives them in different places.

Experiments:
[1] = molecular target: T1, human androgen receptor (AR) (Homo sapiens, UniProt P10275); assay: Co-transfection assay, AR agonist and antagonist activity, CV-1 cells (pRShAR); assay type: cell-based; settings: for AR Agonist CV-1 Cells Efficacy (%): agonist mode, relative to DHT; for AR Antagonist CV-1 Cells Efficacy (%): % maximal inhibition
T1 construct: expressed in transfected cells; host or cells: CV-1 cells, transient transfection
T1 sequence (P10275 1-920): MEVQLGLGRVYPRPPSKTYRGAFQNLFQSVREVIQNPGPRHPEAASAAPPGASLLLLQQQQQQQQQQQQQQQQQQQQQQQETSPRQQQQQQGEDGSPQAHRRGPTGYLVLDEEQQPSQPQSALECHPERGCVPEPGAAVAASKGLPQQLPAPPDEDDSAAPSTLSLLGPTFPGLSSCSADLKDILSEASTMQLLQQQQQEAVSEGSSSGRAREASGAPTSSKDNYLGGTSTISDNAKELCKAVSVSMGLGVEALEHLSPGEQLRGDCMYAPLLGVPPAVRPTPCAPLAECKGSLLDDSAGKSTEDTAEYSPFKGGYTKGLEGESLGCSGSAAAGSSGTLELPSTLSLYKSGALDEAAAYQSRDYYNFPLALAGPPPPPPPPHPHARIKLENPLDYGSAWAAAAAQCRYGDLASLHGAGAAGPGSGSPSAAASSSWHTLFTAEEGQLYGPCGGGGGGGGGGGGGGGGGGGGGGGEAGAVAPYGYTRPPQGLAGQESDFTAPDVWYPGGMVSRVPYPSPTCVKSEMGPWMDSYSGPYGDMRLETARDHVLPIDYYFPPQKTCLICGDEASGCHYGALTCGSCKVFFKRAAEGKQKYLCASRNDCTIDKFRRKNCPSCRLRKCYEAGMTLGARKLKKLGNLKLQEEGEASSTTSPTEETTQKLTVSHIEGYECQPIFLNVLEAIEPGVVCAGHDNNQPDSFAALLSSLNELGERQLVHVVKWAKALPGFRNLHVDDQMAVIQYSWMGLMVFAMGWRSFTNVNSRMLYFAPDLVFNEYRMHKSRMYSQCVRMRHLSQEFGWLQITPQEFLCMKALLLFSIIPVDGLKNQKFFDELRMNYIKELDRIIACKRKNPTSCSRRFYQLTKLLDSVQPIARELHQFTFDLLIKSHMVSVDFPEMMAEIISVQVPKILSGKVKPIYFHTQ

[2] = molecular target: T2, human PR-B (Homo sapiens, UniProt P06401); assay: Co-transfection assay, PR agonist and antagonist activity, CV-1 cells; assay type: cell-based; settings: for EC50: read-out: PR Agonist CV-1 Cells Potency; for IC50: read-out: PR Antagonist CV-1 Cells Potency;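 as to all read-outs here: luciferase reporter driven by a hormone response element, co-transfected with human PR-B into CV-1 monkey kidney cells, agonists raise and antagonists lower the reporter signal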
T2 construct: expressed in transfected cells; host or cells: CV-1 cells (African green monkey kidney fibroblasts), transient transfection
T2 sequence (P06401 1-933): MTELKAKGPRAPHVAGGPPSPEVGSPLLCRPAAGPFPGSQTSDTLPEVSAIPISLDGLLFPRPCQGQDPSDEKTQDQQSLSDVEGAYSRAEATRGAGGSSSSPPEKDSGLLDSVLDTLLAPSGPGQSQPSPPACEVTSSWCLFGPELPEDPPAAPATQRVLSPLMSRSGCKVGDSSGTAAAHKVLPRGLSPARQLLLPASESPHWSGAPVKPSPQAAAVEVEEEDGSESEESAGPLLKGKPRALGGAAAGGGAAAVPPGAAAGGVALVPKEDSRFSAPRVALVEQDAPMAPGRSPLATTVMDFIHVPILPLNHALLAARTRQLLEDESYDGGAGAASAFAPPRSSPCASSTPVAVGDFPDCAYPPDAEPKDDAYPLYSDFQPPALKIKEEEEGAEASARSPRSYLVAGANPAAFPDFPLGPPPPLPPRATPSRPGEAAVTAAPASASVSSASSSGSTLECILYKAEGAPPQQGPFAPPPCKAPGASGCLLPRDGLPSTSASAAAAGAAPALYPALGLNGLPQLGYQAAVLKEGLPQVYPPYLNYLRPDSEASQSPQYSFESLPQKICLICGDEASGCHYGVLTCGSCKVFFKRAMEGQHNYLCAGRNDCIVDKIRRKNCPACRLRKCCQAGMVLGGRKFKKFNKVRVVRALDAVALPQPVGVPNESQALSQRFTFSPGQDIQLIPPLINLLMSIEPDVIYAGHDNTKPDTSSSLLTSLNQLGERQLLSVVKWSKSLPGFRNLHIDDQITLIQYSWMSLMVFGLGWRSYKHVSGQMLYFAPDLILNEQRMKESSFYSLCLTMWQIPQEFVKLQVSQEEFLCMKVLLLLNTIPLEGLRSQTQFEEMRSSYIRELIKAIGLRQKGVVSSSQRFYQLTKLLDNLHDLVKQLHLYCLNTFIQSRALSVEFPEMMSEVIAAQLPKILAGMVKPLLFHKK

[3] = molecular target: T3, human progesterone receptor A form (PR-A) (Homo sapiens, UniProt P06401); assay: PR binding assay, baculovirus extract, [3H] progesterone; settings: read-out: PR Binding Ki
T3 sequence (P06401 1-769 isoform P06401-2): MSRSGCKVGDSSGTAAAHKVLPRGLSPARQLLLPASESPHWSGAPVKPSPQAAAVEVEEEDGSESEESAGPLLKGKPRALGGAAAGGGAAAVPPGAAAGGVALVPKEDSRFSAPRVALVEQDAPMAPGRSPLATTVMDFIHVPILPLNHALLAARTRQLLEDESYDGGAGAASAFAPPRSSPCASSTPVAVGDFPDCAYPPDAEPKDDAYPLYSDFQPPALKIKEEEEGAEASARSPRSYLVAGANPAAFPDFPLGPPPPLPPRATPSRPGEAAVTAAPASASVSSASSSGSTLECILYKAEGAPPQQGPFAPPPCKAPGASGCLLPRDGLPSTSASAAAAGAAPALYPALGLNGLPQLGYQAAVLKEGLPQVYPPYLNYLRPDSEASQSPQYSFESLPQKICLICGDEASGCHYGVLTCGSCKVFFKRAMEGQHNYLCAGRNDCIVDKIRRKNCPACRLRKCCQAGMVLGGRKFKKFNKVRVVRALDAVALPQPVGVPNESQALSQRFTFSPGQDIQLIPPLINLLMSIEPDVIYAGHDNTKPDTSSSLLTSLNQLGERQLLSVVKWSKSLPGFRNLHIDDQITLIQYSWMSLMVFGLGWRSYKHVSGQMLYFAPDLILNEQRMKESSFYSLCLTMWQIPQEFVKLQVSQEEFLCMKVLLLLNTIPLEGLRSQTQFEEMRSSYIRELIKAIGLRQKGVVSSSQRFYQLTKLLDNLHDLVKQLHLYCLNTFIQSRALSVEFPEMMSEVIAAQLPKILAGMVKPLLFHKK

[4] = agonist mode, percent maximal response relative to reference agonist progesterone
[5] = antagonist mode, progesterone at its EC50, % maximal inhibition

| Compound | AR Agonist CV-1 Cells Efficacy (%) ([1]; Table 2) | AR Antagonist CV-1 Cells Efficacy (%) ([1]; Table 2, antagonist mode) | PR Agonist CV-1 Cells Efficacy (%) [2] | PR Antagonist CV-1 Cells Efficacy (%) [2] | EC50 ([2]; agonist mode) [nM] | IC50 [2] [nM] | Ki [3] [nM] | also measured |
| --- | --- | --- | --- | --- | --- | --- | --- | --- |
| 8-(4-Chlorobenzoyl)-5-trifluoromethyl-7-pyridono[5,6-e]indoline [Compound 420] | 40% | 80 |  |  |  |  |  |  |
| 8-Bromo-12-dihydro-2,2,4-trimethylindeno[1,2-]quinoline [Compound 117] |  |  |  |  |  |  |  | PR Agonist CV-1 Cells Efficacy (%) [2, 4]: na (na = not active (i.e. efficacy or <20 and potency of >10,000)); PR Antagonist CV-1 Cells Efficacy (%) [2, 5]: 68% |
| CC1=CC(C)(C)Nc2ccc3c(c21)C(C)Oc1ccc(Cl)cc1-3 (racemic) [Compound 332, (R/S)-9-Chloro-1,2-dihydro-2,2,4,5-tetramethyl-5H-chromeno[3,4-f]quinoline] |  |  | 138% | na (na = not active (i.e. efficacy or <20 and potency of >10,000)) |  |  |  |  |
| CC1(C)Nc2ccc3c(c2C(=O)C1(C)C)C(c1ccc(Cl)cc1)Oc1ccccc1-3 (racemic) [Compound 379, (R/S)-5-(4-Chlorophenyl)-1,2,3,4-tetrahydro-2,2,3,3-tetramethyl-5H-chromeno[3,4-f]-4-quinolinone] |  |  | na (na = not active (i.e. efficacy or <20 and potency of >10,000)) | 87% | > 10000 | 350 | 25 |  |
| CCCCC1Oc2ccccc2-c2ccc3c(c21)C(C)C(O)(CCCC)C(C)(C)N3 (racemic) [Compound 385, (R/S)-3,5-Dibutyl-1,2,3,4-tetrahydro-3-hydroxy-2,2,4-trimethyl-5H-chromeno[3,4-f]quinoline] |  |  | 27% | 45% | 82 | 2300 | 31 |  |
| CC1C(=O)C(C)(C)Nc2ccc3c(c21)/C(=C/c1cccc(F)c1)Oc1ccccc1-3 (racemic) [Compound 389, (Z)-(R/S)-5-(3-Fluorobenzylidene)-1,2,3,4-tetrahydro-2,2,4-trimethyl-5H-chromeno[3,4-f]-3-quinolinone] |  |  | 133% | na (na = not active (i.e. efficacy or <20 and potency of >10,000)) | 17 | > 10000 | 4 |  |
| CCCO[C@@H]1[C@@H](C)c2c(ccc3c2[C@H](c2ccc(Cl)cc2)Oc2ccccc2-3)NC1(C)C (racemic) [Compound 400, (R/S-3l,4u,5u)-5-(4-Chlorophenyl)-1,2,3,4-tetrahydro-3-propyloxy-2,2,4-trimethyl-5H-chromeno[3,4-f]quinoline] |  |  | na (na = not active (i.e. efficacy or <20 and potency of >10,000)) | 68% | > 10000 | 370 | 14 |  |
| C[C@H]1C(=O)C(C)(C)Nc2ccc3c(c21)O[C@H](c1ccccc1)c1ccccc1-3 (relative stereo) [Compound 391, (R/S-4l,6l)-1,2,3,4-Tetrahydro-2,2,4-trimethyl-6-phenyl-5H-isochromeno[3,4-f]-3-quinolinone] |  |  |  |  |  |  |  | PR Agonist CV-1 Cells Efficacy (%) [2, 4]: na (na = not active (i.e. efficacy or <20 and potency of >10,000)); PR Antagonist CV-1 Cells Efficacy (%) [2, 5]: 65% |
| CC1C(=O)C(C)(C)Nc2ccc3c(c21)C(c1ccc(Cl)cc1)Oc1ccccc1-3 (single isomer, unassigned; (+)) [Compound 381, (+)-(R*-4l,5l)-5-(4-Chlorophenyl)-1,2,3,4-tetrahydro-2,2,4-trimethyl-5H-chromeno[3,4-f]-3-quinolinone] |  |  |  | na (na = not active (i.e. efficacy or <20 and potency of >10,000)) |  |  |  |  |
| CC1=CC(C)(C)Nc2ccc(-n3cnc(Cl)c3Cl)cc21 [Compound 103, 6-(4,5-Dichloroimidazol-1-yl)-1,2-dihydro-2,2,4-trimethylquinoline] |  |  | na (na = not active (i.e. efficacy or <20 and potency of >10,000)) | 91% | > 10000 | 780 | 372 |  |
| CC1=CC(C)(C)Nc2cc3[nH]c(=O)cc(C(F)(F)F)c3cc21 [Compound 247, 1,2-Dihydro-2,2,4-trimethyl-6-trifluoromethyl-8-pyridono[5,6-g]quinoline] | 23% | 69 |  |  |  |  |  |  |
| CC1=CC(C)(C)Nc2ccc(-c3cc(F)cc(C#N)c3)cc21 [Compound 271, 6-(3-Cyano-5-fluorophenyl)-1,2-dihydro-2,2,4-trimethylquinoline] |  |  | na (na = not active (i.e. efficacy or <20 and potency of >10,000)) | 78% |  |  |  |  |
| O=c1cc(C(F)(F)F)c2cc3c(cc2[nH]1)NCC3 [Compound 419, 5-Trifluoromethyl-7-pyridono[5,6-e]indoline] | 29% | 74 |  |  |  |  |  |  |
| CC1(C)CNc2cc3[nH]c(=O)cc(C(F)(F)F)c3cc2C1 [Compound 437, 1,2,3,4-Tetrahydro-3,3-dimethyl-6-trifluoromethyl-8-pyridono[5,6-g]quinoline] | na (na = not active (i.e. efficacy of <20 and potency of >10,000)) | 72 |  |  |  |  |  | AR Agonist CV-1 Cells Efficacy (%) [1]: na (na = not active (i.e. efficacy of <20 and potency of >10,000)); activity as AR antagonists compared with 2-OH-flutamide ([1]; antagonist mode): equivual or better activity |
| (R/S)-4-Ethyl-1,2,3,4-tetrahydro-1-methyl-8-pyranono[5,6-g]quinoline [Compound 416] | 88% | 24 |  |  |  |  |  | AR Agonist CV-1 Cells Efficacy (%) [1]: 88%; AR Antagonist CV-1 Cells Efficacy (%) ([1]; antagonist mode, DHT at its EC50): 24% |
